# Test system: human LINE-1
# Assay: Human LINE-1 retrotransposition assay (HeLa cell-based dual-luciferase reporter)
# Settings: Homo sapiens, HeLa, 72 h, Human LINE-1 activity inhibition; HeLa cells, reporter plasmid pYX017, Firefly/Renilla, 72 h incubation
# Method: Representative Compounds of the Disclosure were tested for inhibition of retrotransposition activity of human LINE-1 in HeLa cells according to the following procedure.
# HeLa cervical cancer cells were cultivated at 37° C. in a humidified 5% CO2 incubator in Dulbecco's Modified Eagle's Medium (DMEM)—high glucose, with 4500 mg/L glucose, L-glutamine, sodium pyruvate and sodium bicarbonate (Sigma), supplemented with 10% of heat inactivated fetal bovine serum (Thermo Fisher).
# Assays were performed using reporter plasmid pYX017 as described (Xie, et al., 2011) with several modifications. The reporter assay was performed in 96-well white optical bottom plates. HeLa cells were seeded in wells 24 h prior to transfection and compound treatment so that cells were approximately 30% confluent on the day of transfection. Different cell plating densities were tested and a density of 2×10^3 cells was determined to be optimal.
# Compounds were resuspended in DMSO. Serial dilutions (1:3) were prepared in DMSO. Medium containing different concentrations of the compounds were prepared by adding 2 μl of the compound dilution to 1 ml of the culture medium. The final concentration of DMSO in the medium was 0.2%.
# FuGENE® HD transfection reagent (Promega, E2311, Lot 382574 and Lot 397842) was used to transfect the plasmids into the cells. The transfection reagent: DNA mixture was prepared in OpiMEM (Thermo Fisher) according to manufacturer's instructions. Different ratios of transfection reagent to DNA were tested and a ratio of 3:1 was determined to be optimal. Culture medium was removed from the cells and discarded. The transfection reagent: DNA mixture (5 μl) was mixed with the compound containing medium (100 μl/well) and this was added onto the cells of each well. Cells were incubated at 37° C./5% CO2 for different incubation time. A 72 h incubation time was determined to be optimal.
# Luciferase reporter activity was quantified with the Dual-Luciferase® Reporter Assay System (Promega) according to manufacturer's instructions for multiwell plates except that cells were lysed directly on the multiwell plate with 30 μl of the passive lysis buffer (PLB) for 20 min at room temperature, with gentle shaking to ensure complete cell lysis.
# Firefly and Renilla luciferase signals were measured using a SpectraMax i3× Multi-Mode Microplate Reader. Integration times of 100 ms and 10 ms were used to measure the Firefly and Renilla signals respectively. Relative L1 activity is calculated as Firefly/Renilla*1000 or Firefly/Renilla*10,000. Dose response inhibition data were fit to a four parameter logistic equation using non-linear regression (using Graphpad Prism 8), to determine IC50 values for each inhibitor.
row,Compound,IC50 [µM]
1,"Cc1cn([C@H]2C=C[C@@](C)(CO)O2)c(=O)[nH]c1=O [compound 21, 1-((2R,5S)-5-(hydroxymethyl)-5-methyl-2,5-dihydrofuran-2-yl)-5-methylpyrimidine-2,4(1H,3H)-dione]",> 50
2,"C#C[C@@]1(CO)C=C[C@H](n2cc(OC)c(=O)[nH]c2=O)O1 [compound 36, 1-((2R,5R)-5-ethynyl-5-(hydroxymethyl)-2,5-dihydrofuran-2-yl)-5-methoxypyrimidine-2,4(1H,3H)-dione]",> 12.5
3,"C#C[C@]1(CO)O[C@@H](n2nc(C)c3c(N)nc(F)nc32)C[C@@H]1O [Cpd. No. 75, (2R,3S,5R)-5-(4-amino-6-fluoro-3-methyl-1H-pyrazolo[3,4-d]pyrimidin-1-yl)-2-ethynyl-2-(hydroxymethyl)tetrahydrofuran-3-ol]",> 50
4,"C#C[C@@]1(CO)O[C@H](n2ccc(N)nc2=O)C[C@H]1O [Cpd. No. 76, 4-amino-1-((2S,4R,5S)-5-ethynyl-4-hydroxy-5-(hydroxymethyl)tetrahydrofuran-2-yl)pyrimidin-2(1H)-one]",> 6.25
5,"C#C[C@@]1(CO)C=C[C@H](n2cc(C#N)c(=O)[nH]c2=O)O1 [compound 33, 1-((2R,5R)-5-ethynyl-5-(hydroxymethyl)-2,5-dihydrofuran-2-yl)-2,4-dioxo-1,2,3,4-tetrahydropyrimidine-5-carbonitrile]",> 12.5
6,"C#C[C@]1(CO)O[C@@H](n2ccc(N)nc2=O)C(F)(F)[C@@H]1O [compound 200, 4-amino-1-((2R,4R,5R)-5-ethynyl-3,3-difluoro-4-hydroxy-5-(hydroxymethyl)tetrahydrofuran-2-yl)pyrimidin-2(1H)-one]",414
7,"C#C[C@@]1(CO)C=C[C@H](n2cnc3c(Cl)ncnc32)O1 [compound 39, ((2R,5R)-5-(6-chloro-9H-purin-9-yl)-2-ethynyl-2,5-dihydrofuran-2-yl)methanol]",> 50
8,"COC[C@@]1(CO)C=C[C@H](n2cc(C)c(=O)[nH]c2=O)O1 [compound 48, 1-((2R,5S)-5-(hydroxymethyl)-5-(methoxymethyl)-2,5-dihydrofuran-2-yl)-5-methylpyrimidine-2,4(1H,3H)-dione]",> 50
9,"C#C[C@@]1(CO)C=C[C@H](n2cc(C(F)(F)F)c(=O)[nH]c2=O)O1 [compound 28, 1-((2R,5R)-5-ethynyl-5-(hydroxymethyl)-2,5-dihydrofuran-2-yl)-5-(trifluoromethyl)pyrimidine-2,4(1H,3H)-dione]",> 12.5

# The next lines start with the values.
row,IC50 [µM],Compound
1,25.5,"C#C[C@]1(CO)O[C@H](n2cc(C)c(=O)[nH]c2=O)C[C@@H]1O [compound 50, 1-((2S,4S,5R)-5-ethynyl-4-hydroxy-5-(hydroxymethyl)tetrahydrofuran-2-yl)-5-methylpyrimidine-2,4(1H,3H)-dione]"
2,15,"C#C[C@]1(CO)O[C@@H](N2C=NC3C(NC)=NC(F)=NC32)C[C@@H]1O (stereo partly drawn) [compound 93, (2R,3S,5R)-2-ethynyl-5-(2-fluoro-6-(methylamino)-4,5-dihydro-9H-purin-9-yl)-2-(hydroxymethyl)tetrahydrofuran-3-ol]"
3,7.3,"COC[C@@H]1C=C[C@H](n2cc(C)c(=O)[nH]c2=O)O1 [compound 107, 1-((2R,5S)-5-(methoxymethyl)-2,5-dihydrofuran-2-yl)-5-methylpyrimidine-2,4(1H,3H)-dione]"
4,3.7,"C#C[C@]1(CO)O[C@H](n2cnc3c(N)ncnc32)C[C@@H]1O [compound 80, (2R,3S,5S)-5-(6-amino-9H-purin-9-yl)-2-ethynyl-2-(hydroxymethyl)tetrahydrofuran-3-ol]"
5,0.417,"CNc1nc(N)nc2c1ncn2[C@H]1C[C@H](O)[C@](CO)(CF)O1 [compound 166, (2R,3S,5R)-5-(2-amino-6-(methylamino)-9H-purin-9-yl)-2-(fluoromethyl)-2-(hydroxymethyl)tetrahydrofuran-3-ol]"

# Same assay, conditions: Human LINE-1 activity inhibition; HeLa cells, reporter plasmid pYX017, Firefly/Renilla, 72 h incubation
row,IC50 [µM],Compound
1,20.1,"C#C[C@@]1(CO)C=C[C@H](n2cc(F)c(=O)[nH]c2=O)O1 [compound 22, 1-((5R)-5-ethynyl-5-(hydroxymethyl)-2,5-dihydrofuran-2-yl)-5-fluoropyrimidine-2,4(1H,3H)-dione]"

# Reference: US20260035403A1, “NUCLEOSIDE LINE-1 INHIBITORS” (TRANSPOSON THERAPEUTICS, INC., priority 2022, published 2026)
